Laboratory results taken from patent publication US20230218710A1, “METHOD OF TREATING CORONAVIRUS INFECTIONS” (priority 2020, published 2023).
Marks after values point to notes of the source that are not given here.

Legend:
[1] = tested on: LPS-induced acute lung injury mouse model; assay: LPS-induced acute lung injury model in mouse (Example 8); format: in vivo, mice; details: HCl salts; for Pro-inflammatory Cytokine Level IFNγ / Pro-inflammatory Cytokine Level IL-1β / Pro-inflammatory Cytokine Level IL-2 / Pro-inflammatory Cytokine Level IL-4 / Pro-inflammatory Cytokine Level IL-5 / Pro-inflammatory Cytokine Level IL-6 / Pro-inflammatory Cytokine Level IL-9 / Pro-inflammatory Cytokine Level IL-10 / Pro-inflammatory Cytokine Level IL-12p70 / Pro-inflammatory Cytokine Level IL-17A / Pro-inflammatory Cytokine Level IL-17A/F / Pro-inflammatory Cytokine Level IL-17C / Pro-inflammatory Cytokine Level IL-17E/IL-25 / Pro-inflammatory Cytokine Level IL-23 / Pro-inflammatory Cytokine Level IL-27p28/IL-30 / Pro-inflammatory Cytokine Level IL-31 / Pro-inflammatory Cytokine Level IP-10 / Pro-inflammatory Cytokine Level KC/GRO / Pro-inflammatory Cytokine Level MCP-1 / Pro-inflammatory Cytokine Level MIP-1α / Pro-inflammatory Cytokine Level MIP-2 / Pro-inflammatory Cytokine Level MIP-3α / Pro-inflammatory Cytokine Level TNFα: BALF; for Mean (SEM) Alveolar Neutrophil Infiltration Score / Mean (SEM) Interstitial Neutrophil Infiltration Score / Mean (SEM) Composite Lung Injury Score: histopathology; for Mean (SEM) Alveolar Neutrophil Infiltration Score / Mean (SEM) Interstitial Neutrophil Infiltration Score: 0-5 scale
Description: The effect of the peptides of the current invention on acute lung injury can be assessed in an LPS-induced acute lung injury mouse model by monitoring outcomes such as lung weight, fluid accumulation, cytokine secretion in blood or bronchoalveolar lavage fluid (BALF), neutrophil infiltration into lung tissues, and assessment of acute lung injury score by histopathology. Acute lung injury was induced in male C57BL/6 mice (6 to 8 weeks old) by intratracheal administration of 40 μL lipopolysaccharide (LPS) (Sigma Aldrich, St. Louis, Mo.) in PBS at 5 mg/kg. Control animals received intratracheal PBS alone. Animals (n=8 per treatment group) induced with LPS received intraperitoneal treatment with: PBS (vehicle control) or test peptides at 5 or 15 mg/kg in water. Treatments were administered 1 h prior to LPS for animals designated for termination at 4 h after LPS, or at both 1 h prior to and 6 h after LPS for animals designated for termination at 24 h after LPS. At 4 or 24 hours post-LPS administration, tissues were harvested. Lungs were weighed and flushed with Hanks Buffer to provide bronchoalveolar lavage fluid (BALF). Lungs collected at 24 h were fixed in 10% neutral buffered formalin (NBF) for histopathology. Tissue slides were stained with hematoxylin and eosin (H&E) and evaluated and scored with light microscopy of 5 representative microscopic fields (100× magnification) scoring on a 0-5 scale using standard methods (Matute-Bello G et al 2011. An Official American Thoracic Society Workshop Report: Features and Measurements of Experimental Acute Lung Injury in Animals. Am J Respir Cell Mol Biol 44:725-38). The average score for five fields was calculated for each animal. Levels of pro-inflammatory cytokines in BALF at 4 h were determined using a meso scale discovery (MSD) system. Data for test peptides were compared to the vehicle control group. Table 13 compares the lung weights following LPS induction and treatment with PBS (vehicle control), or peptides. Table 14 compares the levels of pro-inflammatory cytokines in BALF following LPS induction and treatment with PBS (vehicle control) or peptides. Table 15 compares the histopathology scores for infiltration of neutrophils into alveoli and interstitial lung tissue and the composite lung injury score following LPS induction and treatment with PBS (vehicle control) or peptides.

[2] = tested on: LPS-induced acute lung injury mouse model; assay: LPS-induced acute lung injury model in mouse (Example 6); format: in vivo, mice; details: histopathology, 24 h after LPS, 5 mg/kg i.p.
Description: The effect of the peptides of the current invention on acute lung injury can be assessed in an LPS-induced acute lung injury mouse model by monitoring outcomes such as lung weight, fluid accumulation, cytokine secretion in blood or bronchoalveolar lavage fluid (BALF), neutrophil infiltration into lung tissues, and assessment of acute lung injury score by histopathology. Acute lung injury was induced in male C57BL/6 mice (6 to 8 weeks old) by intratracheal administration of 40 μL lipopolysaccharide (LPS) (Sigma Aldrich, St. Louis, Mo.) in PBS at 5 mg/kg. Control animals received intratracheal PBS alone. […] Treatments were administered 1 h prior to LPS for animals designated for sacrifice at 4 h after LPS, or at both 1 h prior to and 6 h after LPS for animals designated for sacrifice at 24 h after LPS. At 4 or 24 hours post LPS administration, tissues were harvested. Lungs were weighed, flushed with Hanks Buffer to provide bronchoalveolar lavage fluid (BALF). Lungs were fixed in 10% neutral buffered formalin (NBF) for histopathology. Tissue slides were stained with hematoxylin and eosin (H&E) and evaluated and scored with light microscopy of 5 representative microscopic fields (100× magnification) scoring on a 0-5 scale using standard methods (Matute-Bello G et al 2011. An Official American Thoracic Society Workshop Report: Features and Measurements of Experimental Acute Lung Injury in Animals. Am J Respir Cell Mol Biol 44:725-38). The average score for five fields was calculated for each animal. Levels of pro-inflammatory cytokines in BALF were determined using a meso scale discovery (MSD) system. Data for test peptides were compared to the vehicle control group. Lung weights were normalized to body weight.

Substance: (PEG12)KRRLLGLVFQSLCG(dA) (KRRLLGLVFQSLCGA; N-terminal PEG12; C-terminal D-alanine; (1)..(1) PEG12; (15)..(15) D-Ala) [SEQ ID NO: 37]
- Mean (SEM) Lung Weight ([1]; 4 h after LPS, 5 mg/kg i.p.): 0.279 (0.006) g
- Mean (SEM) Lung Weight ([1]; 4 h after LPS, 15 mg/kg i.p.): 0.280 (0.005) g
- Mean (SEM) Lung Weight ([1]; 24 h after LPS, 5 mg/kg i.p.): 0.286 (0.008)* g
- Mean (SEM) Lung Weight ([1]; 24 h after LPS, 15 mg/kg i.p.): 0.284 (0.007)* g
- Pro-inflammatory Cytokine Level IFNγ ([1]; 4 h after LPS, 5 mg/kg i.p.): 0.37 (0.07) pg/mL
- Pro-inflammatory Cytokine Level IL-1β ([1]; 4 h after LPS, 5 mg/kg i.p.): 68.3 (12.6) pg/mL
- Pro-inflammatory Cytokine Level IL-2 ([1]; 4 h after LPS, 5 mg/kg i.p.): 2.83 (0.45) pg/mL
- Pro-inflammatory Cytokine Level IL-4 ([1]; 4 h after LPS, 5 mg/kg i.p.): 1.63 (0.37) pg/mL
- Pro-inflammatory Cytokine Level IL-5 ([1]; 4 h after LPS, 5 mg/kg i.p.): 8.14 (1.35) pg/mL
- Pro-inflammatory Cytokine Level IL-6 ([1]; 4 h after LPS, 5 mg/kg i.p.): 9380 (1380) pg/mL
- Pro-inflammatory Cytokine Level IL-9 ([1]; 4 h after LPS, 5 mg/kg i.p.): 7.84 (0.67) pg/mL
- Pro-inflammatory Cytokine Level IL-10 ([1]; 4 h after LPS, 5 mg/kg i.p.): 32.2 (5.31) pg/mL
- Pro-inflammatory Cytokine Level IL-12p70 ([1]; 4 h after LPS, 5 mg/kg i.p.): 65.2 (15.9) pg/mL
- Pro-inflammatory Cytokine Level IL-17A ([1]; 4 h after LPS, 5 mg/kg i.p.): 2.22 (0.741) pg/mL
- Pro-inflammatory Cytokine Level IL-17A/F ([1]; 4 h after LPS, 5 mg/kg i.p.): 7.45 (2.46) pg/mL
- Pro-inflammatory Cytokine Level IL-17C ([1]; 4 h after LPS, 5 mg/kg i.p.): 0.66 (0.04) pg/mL
- Pro-inflammatory Cytokine Level IL-17E/IL-25 ([1]; 4 h after LPS, 5 mg/kg i.p.): 0.18 (0.10) pg/mL
- Pro-inflammatory Cytokine Level IL-23 ([1]; 4 h after LPS, 5 mg/kg i.p.): 0.08 (0.07) pg/mL
- Pro-inflammatory Cytokine Level IL-27p28/IL-30 ([1]; 4 h after LPS, 5 mg/kg i.p.): 13.7 (2.44) pg/mL
- Pro-inflammatory Cytokine Level IL-31 ([1]; 4 h after LPS, 5 mg/kg i.p.): 0.00 (0.00) pg/mL
- Pro-inflammatory Cytokine Level IP-10 ([1]; 4 h after LPS, 5 mg/kg i.p.): 2290 (341) pg/mL
- Pro-inflammatory Cytokine Level KC/GRO ([1]; 4 h after LPS, 5 mg/kg i.p.): 3120 (196) pg/mL
- Pro-inflammatory Cytokine Level MCP-1 ([1]; 4 h after LPS, 5 mg/kg i.p.): 1310 (225) pg/mL
- Pro-inflammatory Cytokine Level MIP-1α ([1]; 4 h after LPS, 5 mg/kg i.p.): 5660 (50.6) pg/mL
- Pro-inflammatory Cytokine Level MIP-2 ([1]; 4 h after LPS, 5 mg/kg i.p.): 3230 (25.1) pg/mL
- Pro-inflammatory Cytokine Level MIP-3α ([1]; 4 h after LPS, 5 mg/kg i.p.): 983 (75.1) pg/mL
- Pro-inflammatory Cytokine Level TNFα ([1]; 4 h after LPS, 5 mg/kg i.p.): 4070 (518) pg/mL
- Pro-inflammatory Cytokine Level IFNγ ([1]; 4 h after LPS, 15 mg/kg i.p.): 0.42 (0.10) pg/mL
- Pro-inflammatory Cytokine Level IL-1β ([1]; 4 h after LPS, 15 mg/kg i.p.): 91.5 (20.0) pg/mL
- Pro-inflammatory Cytokine Level IL-2 ([1]; 4 h after LPS, 15 mg/kg i.p.): 3.36 (0.55) pg/mL
- Pro-inflammatory Cytokine Level IL-4 ([1]; 4 h after LPS, 15 mg/kg i.p.): 1.75 (0.28) pg/mL
- Pro-inflammatory Cytokine Level IL-5 ([1]; 4 h after LPS, 15 mg/kg i.p.): 13.2 (2.05) pg/mL
- Pro-inflammatory Cytokine Level IL-6 ([1]; 4 h after LPS, 15 mg/kg i.p.): 11600 (1360) pg/mL
- Pro-inflammatory Cytokine Level IL-9 ([1]; 4 h after LPS, 15 mg/kg i.p.): 7.89 (1.31) pg/mL
- Pro-inflammatory Cytokine Level IL-10 ([1]; 4 h after LPS, 15 mg/kg i.p.): 31.5 (3.76) pg/mL
- Pro-inflammatory Cytokine Level IL-12p70 ([1]; 4 h after LPS, 15 mg/kg i.p.): 80.0 (21.8) pg/mL
- Pro-inflammatory Cytokine Level IL-17A ([1]; 4 h after LPS, 15 mg/kg i.p.): 2.82 (0.639) pg/mL
- Pro-inflammatory Cytokine Level IL-17A/F ([1]; 4 h after LPS, 15 mg/kg i.p.): 4.48 (0.59) pg/mL
- Pro-inflammatory Cytokine Level IL-17C ([1]; 4 h after LPS, 15 mg/kg i.p.): 0.69 (0.13) pg/mL
- Pro-inflammatory Cytokine Level IL-17E/IL-25 ([1]; 4 h after LPS, 15 mg/kg i.p.): 0.44 (0.29) pg/mL
- Pro-inflammatory Cytokine Level IL-23 ([1]; 4 h after LPS, 15 mg/kg i.p.): 0.06 (0.05) pg/mL
- Pro-inflammatory Cytokine Level IL-27p28/IL-30 ([1]; 4 h after LPS, 15 mg/kg i.p.): 15.5 (2.42) pg/mL
- Pro-inflammatory Cytokine Level IL-31 ([1]; 4 h after LPS, 15 mg/kg i.p.): 0.00 (0.00) pg/mL
- Pro-inflammatory Cytokine Level IP-10 ([1]; 4 h after LPS, 15 mg/kg i.p.): 3020 (547) pg/mL
- Pro-inflammatory Cytokine Level KC/GRO ([1]; 4 h after LPS, 15 mg/kg i.p.): 3260 (142) pg/mL
- Pro-inflammatory Cytokine Level MCP-1 ([1]; 4 h after LPS, 15 mg/kg i.p.): 1590 (178) pg/mL
- Pro-inflammatory Cytokine Level MIP-1α ([1]; 4 h after LPS, 15 mg/kg i.p.): 5490 (35.1) pg/mL
- Pro-inflammatory Cytokine Level MIP-2 ([1]; 4 h after LPS, 15 mg/kg i.p.): 3160 (34.2) pg/mL
- Pro-inflammatory Cytokine Level MIP-3α ([1]; 4 h after LPS, 15 mg/kg i.p.): 825 (46.9) pg/mL
- Pro-inflammatory Cytokine Level TNFα ([1]; 4 h after LPS, 15 mg/kg i.p.): 3910 (349) pg/mL
- Mean (SEM) Alveolar Neutrophil Infiltration Score ([1]; 24 h after LPS, 5 mg/kg i.p.): 1.50 (0.09)
- Mean (SEM) Interstitial Neutrophil Infiltration Score ([1]; 24 h after LPS, 5 mg/kg i.p.): 1.55 (0.14)
- Mean (SEM) Alveolar Neutrophil Infiltration Score ([1]; 24 h after LPS, 15 mg/kg i.p.): 1.60 (0.13)
- Mean (SEM) Interstitial Neutrophil Infiltration Score ([1]; 24 h after LPS, 15 mg/kg i.p.): 1.23 (0.11)
- Mean (SEM) Composite Lung Injury Score ([1]; 24 h after LPS, 5 mg/kg i.p.): 3.08 (0.17)
- Mean (SEM) Composite Lung Injury Score ([1]; 24 h after LPS, 15 mg/kg i.p.): 2.93 (0.22)
- Mean (SEM) Alveolar Neutrophil Infiltration Score ([2]; 0-5 scale): 1.50 (0.14)
- Mean (SEM) Interstitial Neutrophil Infiltration Score ([2]; 0-5 scale): 1.30 (0.11)
- Mean (SEM) Composite Lung Injury Score [2]: 2.83 (0.23)
